Reference: the NIST ThermoML archive (doi:10.1021/je900414p)
Numbers after ± are expanded uncertainties.

Assay: xn = mol fraction of the nth substance listed
Conditions: Liquid

CCOS(=O)(=O)[O-].CCn1cc[n+](C)c1 [1-ethyl-3-methylimidazolium ethyl sulfate] + CCO
mass density [kg/m3]
Conditions	100 kPa	2500 kPa	5000 kPa	10000 kPa	15000 kPa	20000 kPa	25000 kPa	30000 kPa	35000 kPa
298.15 K, x1 = 0.05056	855.98 ± 0.66	857.88 ± 0.71	859.83 ± 0.77	863.62 ± 0.88	867.22 ± 0.99	870.7 ± 1.1	874.05 ± 1.2	877.28 ± 1.4	880.4 ± 1.5
298.15 K, x1 = 0.103	913.93 ± 0.58	915.61 ± 0.6	917.4 ± 0.6	920.89 ± 0.68	924.24 ± 0.73	927.48 ± 0.78	930.6 ± 0.8	933.63 ± 0.86	936.57 ± 0.9
298.15 K, x1 = 0.1247	935.16 ± 0.54	936.81 ± 0.56	938.54 ± 0.58	941.91 ± 0.61	945.16 ± 0.64	948.3 ± 0.7	951.34 ± 0.69	954.29 ± 0.71	957.15 ± 0.73
298.15 K, x1 = 0.2126	1003.9 ± 0.5	1005.45 ± 0.46	1007.01 ± 0.47	1010.07 ± 0.48	1013.02 ± 0.49	1015.88 ± 0.5	1018.67 ± 0.53	1021.38 ± 0.55	1024.03 ± 0.58
298.15 K, x1 = 0.2919	1052 ± 1	1052.97 ± 0.52	1054.41 ± 0.54	1057.22 ± 0.59	1059.95 ± 0.65	1062.62 ± 0.71	1065.22 ± 0.78	1067.75 ± 0.86	1070.23 ± 0.94
298.15 K, x1 = 0.3185	1065.62 ± 0.52	1066.9 ± 0.5	1068.3 ± 0.6	1071.05 ± 0.63	1073.73 ± 0.7	1076.33 ± 0.78	1078.88 ± 0.86	1081.37 ± 0.96	1083.79 ± 1.1
298.15 K, x1 = 0.4198	1109.11 ± 0.58	1110.35 ± 0.62	1111.65 ± 0.67	1114.21 ± 0.78	1116.72 ± 0.89	1119.15 ± 1	1121.54 ± 1.2	1123.89 ± 1.4	1126.17 ± 1.5
298.15 K, x1 = 0.4847	1131.56 ± 0.61	1132.76 ± 0.67	1133.99 ± 0.73	1136.46 ± 0.86	1138.86 ± 1	1141.21 ± 1.2	1143.53 ± 1.4	1145.8 ± 1.6	1148.02 ± 1.7
298.15 K, x1 = 0.5713	1157.07 ± 0.66	1158.2 ± 0.7	1159.39 ± 0.8	1161.74 ± 0.96	1164.05 ± 1.1	1166.31 ± 1.4	1168.52 ± 1.6	1170.7 ± 1.8	1172.85 ± 2
298.15 K, x1 = 0.6827	1183.93 ± 0.7	1185.01 ± 0.79	1186.16 ± 0.87	1188.41 ± 1.1	1190.6 ± 1.3	1192.77 ± 1.6	1194.89 ± 1.8	1197 ± 2	1199.05 ± 2.3
298.15 K, x1 = 0.7919	1205.61 ± 0.75	1206.51 ± 0.84	1207.59 ± 0.94	1209.76 ± 1.2	1211.88 ± 1.4	1213.98 ± 1.7	1216.03 ± 2	1218.05 ± 2.2	1220.04 ± 2.5
298.15 K, x1 = 0.9317	1227.5 ± 0.8	1228.53 ± 0.89	1229.57 ± 1	1231.66 ± 1.3	1233.72 ± 1.6	1235.74 ± 1.9	1237.73 ± 2.1	1239.69 ± 2.4	1241.63 ± 2.7
303.15 K, x1 = 0.05056	851.9 ± 0.7	853.85 ± 0.72	855.87 ± 0.78	859.72 ± 0.89	863.43 ± 1	866.98 ± 1.1	870.39 ± 1.3	873.69 ± 1.4	876.89 ± 1.5
303.15 K, x1 = 0.103	910.06 ± 0.58	911.7 ± 0.6	913.54 ± 0.64	917.1 ± 0.7	920.52 ± 0.75	923.82 ± 0.8	927 ± 1	930.09 ± 0.89	933.1 ± 0.9
303.15 K, x1 = 0.1247	931.25 ± 0.55	932.93 ± 0.57	934.69 ± 0.59	938.12 ± 0.62	941.44 ± 0.66	944.64 ± 0.69	947.74 ± 0.71	950.74 ± 0.74	953.67 ± 0.76
303.15 K, x1 = 0.2126	1000.1 ± 0.5	1001.68 ± 0.46	1003.26 ± 0.46	1006.36 ± 0.47	1009.37 ± 0.48	1012.29 ± 0.49	1015.12 ± 0.51	1017.88 ± 0.53	1020.58 ± 0.56
303.15 K, x1 = 0.2919	1048.63 ± 0.5	1049.46 ± 0.52	1050.92 ± 0.54	1053.74 ± 0.58	1056.51 ± 0.63	1059.18 ± 0.69	1061.79 ± 0.76	1064.33 ± 0.83	1066.82 ± 0.91
303.15 K, x1 = 0.3185	1061.99 ± 0.51	1063.29 ± 0.53	1064.7 ± 0.6	1067.49 ± 0.62	1070.22 ± 0.68	1072.86 ± 0.76	1075.44 ± 0.84	1077.96 ± 0.93	1080.42 ± 1
303.15 K, x1 = 0.4198	1105.54 ± 0.57	1106.82 ± 0.62	1108.14 ± 0.66	1110.73 ± 0.76	1113.28 ± 0.88	1115.76 ± 1	1118.18 ± 1.2	1120.55 ± 1.3	1122.89 ± 1.5
303.15 K, x1 = 0.4847	1128.01 ± 0.61	1129.22 ± 0.66	1130.5 ± 0.7	1132.99 ± 0.85	1135.43 ± 0.98	1137.83 ± 1.2	1140.16 ± 1.3	1142.46 ± 1.5	1144.71 ± 1.7
303.15 K, x1 = 0.5713	1153.59 ± 0.65	1154.71 ± 0.72	1155.92 ± 0.79	1158.31 ± 0.94	1160.66 ± 1.1	1162.94 ± 1.3	1165.19 ± 1.5	1167.4 ± 1.8	1169.59 ± 2
303.15 K, x1 = 0.6827	1180.46 ± 0.7	1181.59 ± 0.78	1182.73 ± 0.86	1185 ± 1	1187.24 ± 1.3	1189.45 ± 1.5	1191.6 ± 1.8	1193.74 ± 2	1195.84 ± 2.2
303.15 K, x1 = 0.7919	1202.24 ± 0.74	1203.1 ± 0.8	1204.19 ± 0.93	1206.38 ± 1.2	1208.54 ± 1.4	1210.64 ± 1.7	1212.73 ± 1.9	1214.77 ± 2.2	1216.82 ± 2.5
303.15 K, x1 = 0.9317	1224.05 ± 0.78	1225.06 ± 0.88	1226.12 ± 1	1228.23 ± 1.3	1230.32 ± 1.6	1232.36 ± 1.8	1234.37 ± 2.1	1236.36 ± 2.4	1238.34 ± 2.7
